In US20260378560A1, “APPROACHES TO DESIGNING AND PERFORMING COMPRESSED BIOLOGICAL EXPERIMENTS AND SYSTEMS FOR IMPLEMENTING THE SAME” (EXVIVO LABS INC., priority 2023, published 2026):

Tests used:
[1] = system: REH; assay: Cell viability (CellTiter Glo), library of cancer drugs, individual or sample compression with randomized (alphabetical) pools, REH; assay type: cell-based; settings: REH; for DRS: None (measured individually); for DRS from deconvolution: Samples, 7 Pick 3 randomized (alphabetical) sample pools
Method: (§1) Total cell viability was measured for each sample using an ATP-based luminescence assay (i.e., CellTiter Glo). Each cancer drug was then screened at multiple concentrations ranging from one nM to ten μM in order to generate a dose-response curve and calculate a DRS for each cancer cell line.
(§2) Each cancer drug was cultured with target cells individually. At the end of the screen, samples were either analyzed individually or compressed into pools for analysis. The library was compressed alphabetically into ten cohorts, each of which contained seven cancer drugs present in three out of the seven pools, as shown in Table VII. Said another way, the screening platform 210 generated a “7 pick 3” compressed library by assigning the cancer drugs among different pools. […] The library was also compressed into ten cohorts with pools designed based on information known about each cancer drug, as shown in Table VIII. After cell viability measurement and DRS calculation, the DRS of each cancer drug in the samples generated based on the pools were deconvoluted and compared to the DRS for each cancer drug measured individually.
(§3) In SUM-based deconvolution, an assumption of additivity is used to quantify the individual effects of each perturbation on each target. Additivity implies that each perturbation effect on each target is positively contributing to the overall effect measured for that pool. This is an accurate assumption for certain experiments, such as when targets or samples are compressed. When targets are pooled—or when samples containing different targets are pooled—the effect of each perturbation on each individual target is diluted. In other words, each perturbation has an isolated effect on a target in culture, and the sum total of the isolated effects are measured when pooled. Therefore, SUM-based deconvolution breaks down the sum total measured for a pool and assigns estimated fractional effects to each compressed perturbation or target in the pool. The screening platform 210 used SUM-based deconvolution for all target and sample compression experiments described above.

[2] = system: MOLT-4; assay: Cell viability (CellTiter Glo), library of cancer drugs, individual or sample compression with randomized (alphabetical) pools, MOLT-4; assay type: cell-based; settings: for DRS: MOLT-4, None (measured individually); for DRS from deconvolution: MOLT-4, Samples, 7 Pick 3 randomized (alphabetical) sample pools
Method: as §1, §2, §3

[3] = system: REH; assay: Cell viability (CellTiter Glo), compressed perturbation pools with informed pool design, MAX-based deconvolution, REH; settings: REH; for DRS: None (measured individually), informed pool design table; for DRS from MAX-based deconvolution: Samples, 7 Pick 3 informed perturbation pools;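 for all read-outs here: higher DRS means a larger drug effect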
Method: as §1, §2
(§4) In parallel to the exemplary sample compression screen covered in Table VII, perturbations were compressed into pools and then screened. The pools were designed using drug class as a feature with two compression rules (or simply “rules”). The first rule required that drugs from the same class be separated into different cohorts (i.e., mutually exclusive groups of pools). […] A benefit of compressing perturbations is the ability to measure additive, antagonistic, and synergistic effects between drugs in the same pool. However, these effects can negatively impact deconvolution of individual drug effects. Therefore, combinations of drugs for which evidence of clinical toxicity exists can be assigned to different pools in accordance with an informed pooling operation. As new preclinical or clinical evidence of toxic combinations becomes available, the rules implemented by the screening platform 210—and more specifically, its algorithm for compressing members of a library—can be updated accordingly.
(§5) In MAX-based deconvolution, an assumption of neutrality between the compressed perturbations is made. In other words, the perturbation with the largest effect is assumed to be masking the effects, if any, of the other perturbations in the pool. For SUM- and MAX-based deconvolution, qualitative deconvolution is first performed to rank the perturbations in each pool based on size of expected effect. Qualitative deconvolution, as described above, ranks the perturbations in a pool from largest effect size to smallest effect size. The ranking is based on the overlap of each perturbation's unique subset of pools with the highest and lowest measured pools. The perturbation with the largest effect is expected to be present in the pools with the highest measured signal or corresponding metric (e.g., DRS), while the perturbation with the smallest effect is expected to be present in the pools with the lowest measured signal or corresponding metric (e.g., DRS).
(§6) For MAX-based deconvolution, the highest ranked perturbation in the rank order is first assigned an effect size based on the pool with the lowest measured signal or corresponding metric (e.g., DRS) that it is present in. Said another way, the screening platform 210 can identify the highest ranked perturbation in the rank order and then assign an effect size based on the measured signal or corresponding metric (e.g., DRS) of the “weakest” pool in which the highest ranked perturbation is included. The screening platform 210 can repeat this step for the next highest ranked perturbation, and so on until the measurements for each pool have been assigned to one of the perturbations. The effects for the remaining perturbations can be assigned a value of zero, since it is assumed that their effect is masked by the perturbation with the largest effect in each pool.

[4] = system: MOLT-4; assay: Cell viability (CellTiter Glo), compressed perturbation pools with informed pool design, MAX-based deconvolution, MOLT-4; settings: for DRS: MOLT-4, None (measured individually), informed pool design table; for DRS from MAX-based deconvolution: MOLT-4, Samples, 7 Pick 3 informed perturbation pools;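 for all read-outs here: higher DRS means a larger drug effect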
Method: as §1, §2, §4, §5, §6

`Cc1cc(Nc2ncnc3ccc(NC4=NC(C)(C)CO4)cc23)ccc1Oc1ccn2ncnc2c1` [Tucatinib] gave a DRS [1] of 0.30, a DRS from deconvolution [1] of 0.21 and a DRS [2] of 0.00. The DRS from deconvolution [2] was 0.00, the DRS [3] was 0.91 and the “DRS from MAX-based deconvolution” value [3] was 0.00. For the same molecule, the DRS [4] was 0.80 and the “DRS from MAX-based deconvolution” value [4] was 0.00.

In the case of `CNC(=O)c1ccc(-c2cnc3ncc(Cc4ccc5ncccc5c4)n3n2)cc1F` [Capmatinib], the DRS [1] is reported as 0.10, the DRS from deconvolution [1] is reported as 1.13 and the DRS [2] is reported as 0.10. The DRS from deconvolution [2] was 7.24, the DRS [3] was 0.00 and the “DRS from MAX-based deconvolution” value [3] was 0.00. For the same molecule, the DRS [4] was 0.40 and the “DRS from MAX-based deconvolution” value [4] was 0.00.

Work on `FC(F)(F)c1ccc(CNc2ccc(Cc3c[nH]c4ncc(Cl)cc34)cn2)cn1` [Pexidartinib] yielded a DRS [1] of 2.30, a DRS from deconvolution [1] of 2.11 and a DRS [2] of 0.00. For the same molecule, the DRS from deconvolution [2] was 0.00, the DRS [3] was 1.00 and the “DRS from MAX-based deconvolution” value [3] was 0.00. For the same molecule, the DRS [4] was 7.00 and the “DRS from MAX-based deconvolution” value [4] was 9.12.

Molecule `CCN(CC)CCNC(=O)c1c(C)[nH]c(/C=C2\C(=O)Nc3ccc(F)cc32)c1C` [Sunitinib] has a DRS [1] of 0.06, a DRS from deconvolution [1] of 0.00 and a DRS [2] of 0.56. The DRS from deconvolution [2] was 0.50, the DRS [3] was 3.10 and the “DRS from MAX-based deconvolution” value [3] was 0.00. The DRS [4] was 2.60 and the “DRS from MAX-based deconvolution” value [4] was 0.00.

`C[C@H](Nc1ncnc2nc[nH]c12)c1cc2cccc(Cl)c2c(=O)n1-c1ccccc1` [Duvelisib] showed a DRS [1] of 0.00, a DRS from deconvolution [1] of 0.00 and a DRS [2] of 0.00. For the same molecule, the DRS from deconvolution [2] was 0.00, the DRS [3] was 2.58 and the “DRS from MAX-based deconvolution” value [3] was 3.75. The DRS [4] was 5.28 and the “DRS from MAX-based deconvolution” value [4] was 5.28.

`CNC(=O)c1cc(Oc2ccc(NC(=O)Nc3ccc(Cl)c(C(F)(F)F)c3)c(F)c2)ccn1` [Regorafenib] gave a DRS [1] of 6.99, a DRS from deconvolution [1] of 7.23 and a DRS [2] of 5.79. The DRS from deconvolution [2] was 5.22, the DRS [3] was 2.85 and the “DRS from MAX-based deconvolution” value [3] was 2.97. For the same molecule, the DRS [4] was 3.95 and the “DRS from MAX-based deconvolution” value [4] was 4.25.

Work on `Cc1cn(-c2cc(NC(=O)c3ccc(C)c(Nc4nccc(-c5cccnc5)n4)c3)cc(C(F)(F)F)c2)cn1` [Nilotinib] yielded a DRS [1] of 2.85, a DRS from deconvolution [1] of 2.97 and a DRS [2] of 3.95. The DRS from deconvolution [2] was 3.88, the DRS [3] was 0.00 and the “DRS from MAX-based deconvolution” value [3] was 0.00. The DRS [4] was 0.00 and the “DRS from MAX-based deconvolution” value [4] was 0.00.
